Legend:
[1] = Simulated gastrointestinal digestion (oral, gastric, intestinal); bioaccessible fraction; assay type: in vitro ADME; settings: after simulated digestion
Method: Gastrointestinal digestion of the samples was simulated adopting the method described by Minekus et al., 2014, Food & Function, 5(6), 1113-1124. Gastrointestinal digestion consisted of a sequential oral, gastric and intestinal digestion. Simulated salivary fluid (SSF), simulated gastric fluid (SGF) and simulated intestinal fluid (SIF) were prepared using a method reported previously (Minekus et al., 2014). […] The experiments were performed in 50 mL Erlenmeyer flasks. All digestion experiments were carried out in triplicate.
First, the sample (0.25 g) and SSF electrolyte stock solution (3.5 mL) were added into the flask. Then, 0.5 mL of α-amylase solution (750 U/mL) was included to have a final mixture with 75 U/mL. Subsequently, 25 μL of 0.3 M CaCl2 and 0.975 mL of deionized water were added. Finally, pH of the mixture was adjusted to pH 7.0 and the mixture was agitated in a shaking water bath (Precision SWB 27, Thermo Fisher Scientific, NH, USA) for 30 sec at 37° C. with a mixing rate of 150 rpm (Mennah-Govela & Bornhorst, 2016; Minekus et al., 2014).
After the oral digestion, oral bolus (5 mL) was mixed with SGF electrolyte stock solution (3.25 mL, pH 3.0) and the pH was adjusted to 3.0 using 1 M HCl (75 μL). […] The pH of the mixture was monitored and kept at pH 3.0 using 1 M HCl. […]

[2] = Plasma CUR concentration over time after administration (bioavailability in rats); assay type: in vivo; settings: rat, 0-90 minutes after administration, read-out: maximum concentration of CUR in the plasma (Cmax)
Source text: FIG. 12 depicts the bioavailability of curcumin (CUR) impregnated in the nanoporous starch aerogels in rats as analyzed in Example 2.
The plasma CUR concentration was monitored over time after administration.

[3] = Solubility of curcumin in ethanol; assay type: physicochemical
Method: Impregnation of curcumin was conducted during the solvent exchange step. Excess curcumin was mixed with ethanol at room temperature (21° C.) and the undissolved curcumin was removed by filtration through a 0.45 μm pore-size filter. […] Afterwards, curcumin impregnated alcogels were dried using the same SC-CO2 drying conditions. Moreover, curcumin impregnation was investigated at 60° C., where higher solubility of curcumin in ethanol was obtained. Curcumin impregnated NSAs were called CUR-NSA-60° C. or CUR-NSA-RT depending on the impregnation temperature of 60° C. or room temperature (RT), respectively. Curcumin impregnated NSAs were stored in the freezer at −18° C. until characterized.
Impregnation capacity of the Curcumin-NSA-RT, where impregnation was performed at room temperature (21° C.), was 14.4 mg curcumin/g NSA (FIG. 5). When temperature of the impregnation increased to 60° C. […] Impregnation capacity was basically based on the solubility of curcumin in ethanol. […] The reason for a drastic increase in the impregnation capacity at 60° C. was the crystallization of curcumin in the saturated ethanolic curcumin solution on the surface of the NSA due to temperature drop to 40° C. during SC-CO2 drying. Crystallization from ethanol before the supercritical conditions reached led to the formation of long curcumin crystals (data not shown) which impacted the bioaccessibility of curcumin after simulated digestion (FIG. 10).

[4] = 10 MPa and 40° C.; cited from earlier work
[5] = in humans; cited from earlier work

COc1cc(/C=C/C(=O)CC(=O)/C=C/c2ccc(O)c(OC)c2)ccc1O [crude curcumin, Curcumin (diferuloylmethane)]
concentration of curcumin in the bioaccessible fraction [1]: 3000 ng/mL | Cmax [2]: 500 nM | increase in the solubility of curcumin in ethanol ([3]; 21 to 60° C.): 3.9 fold | solubility of curcumin in ethanol ([3]; 21° C.): 4.4±0.2 mg curcumin/mL ethanol | solubility of curcumin in ethanol ([3]; 60° C.): 17.2±0.3 mg curcumin/mL ethanol | solubility of curcumin in SC-CO2 [4]: ~0.4 ng/mL | bioavailability [5]: ~1%

— patent US11654119B2, “Bioavailable curcumin nanoparticles and methods of making” (NUtech Ventures, priority 2018, dated 2023)
